Assay results reported in ChEMBL document CHEMBL1149644, “alpha,alpha-Cyclic aminoacids as useful scaffolds for the preparation of hNK(2) receptor antagonists” (Bioorg Med Chem Lett, 2007).
Converted amounts (≈) assume the structure as drawn.

Tests used:
Substance-K receptor [1] = molecular target: T1, Substance-K receptor (Homo sapiens, UniProt P21452); experiment: Displacement of [125I]NKA from human NK2 expressed in CHO-K1 cells; type: cell-based
T1 sequence (P21452 whole entry): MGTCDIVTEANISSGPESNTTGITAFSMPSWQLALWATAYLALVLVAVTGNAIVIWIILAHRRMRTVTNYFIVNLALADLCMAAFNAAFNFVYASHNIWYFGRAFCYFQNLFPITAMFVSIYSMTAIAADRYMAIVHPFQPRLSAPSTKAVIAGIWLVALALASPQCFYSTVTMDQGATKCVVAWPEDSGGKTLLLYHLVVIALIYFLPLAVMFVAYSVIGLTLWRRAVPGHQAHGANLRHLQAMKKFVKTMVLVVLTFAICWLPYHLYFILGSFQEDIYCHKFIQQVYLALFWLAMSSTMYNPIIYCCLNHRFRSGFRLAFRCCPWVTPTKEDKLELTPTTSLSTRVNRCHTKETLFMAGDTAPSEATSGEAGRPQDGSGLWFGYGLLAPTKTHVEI

Substance-K receptor [2] = molecular target: T2, Substance-K receptor (Cavia porcellus, UniProt Q64077); experiment: […] activity at NK2 receptor in guinea pig smooth muscle; type: functional
T2 sequence (Q64077 whole entry): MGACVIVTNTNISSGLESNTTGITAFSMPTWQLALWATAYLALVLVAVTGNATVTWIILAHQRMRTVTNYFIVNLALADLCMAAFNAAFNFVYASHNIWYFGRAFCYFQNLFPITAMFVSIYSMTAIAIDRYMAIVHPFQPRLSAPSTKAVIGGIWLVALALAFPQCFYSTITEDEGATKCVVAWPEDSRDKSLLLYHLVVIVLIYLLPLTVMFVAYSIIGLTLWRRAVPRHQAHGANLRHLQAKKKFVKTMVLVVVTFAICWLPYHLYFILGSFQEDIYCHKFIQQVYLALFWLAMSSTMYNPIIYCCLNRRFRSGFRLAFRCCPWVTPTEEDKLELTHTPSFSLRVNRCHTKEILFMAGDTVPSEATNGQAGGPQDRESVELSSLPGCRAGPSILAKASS

[3] = Solubility at pH 7.4; type: physicochemical; settings: buffer
[4] = Metabolic stability in guinea pig liver S9 fraction after 30 mins; type: ADME, subcellular, Cavia porcellus; settings: read-out: Stability

SMILES	Ki (Substance-K receptor [1]) [nM]	further results
O=C(NC1(C(=O)N[C@H](Cc2ccccc2)C(=O)NCCCN2CCOCC2)CCCC1)c1cc2ccccc2s1	–	solubility [3]: 100 µg/mL (≈ 178 µM); remaining at 0.5 h [4]: 4%
CCN(CC)CCCNC(=O)C(Cc1ccccc1)NC(=O)C1(NC(=O)c2cc3ccccc3s2)CCCCC1 (stereo unspecified)	100	–
CCC(CC)(NC(=O)c1cc2ccccc2s1)C(=O)N[C@@H](Cc1ccccc1)C(=O)NCCOCCOCCN	> 1000	–
NCCOCCOCCNC(=O)[C@H](Cc1ccccc1)NC(=O)CNC(=O)c1cc2ccccc2s1	> 10000	–
CN1CCN(CCCNC(=O)[C@@H](Cc2ccccc2)NC(=O)C2(NC(=O)c3cc4ccccc4s3)CCc3ccccc32)CC1 (stereo in doubt; 48a)	> 100	–
CC(C)C[C@H](NC(=O)[C@H](Cc1ccccc1)NC(=O)C1(NC(=O)c2cc3ccccc3s2)CCCCC1)C(N)=O	10000	–
O=C(NC1(C(=O)N[C@H](Cc2ccccc2)C(=O)NCCCN2CCOCC2)CCc2ccccc21)c1cc2ccccc2s1 (stereo in doubt; 47a)	100	–
NCCOCCOCCNC(=O)[C@H](Cc1ccccc1)NC(=O)C1(NC(=O)c2cc3ccccc3s2)CCc2ccccc2C1 (stereo partly specified)	398	–
NCCCCCCCCNC(=O)C(Cc1ccccc1)NC(=O)C1(NC(=O)c2cc3ccccc3s2)CCCCC1 (stereo unspecified)	126	–
CC(C)(NC(=O)c1cc2ccccc2s1)C(=O)N[C@@H](Cc1ccccc1)C(=O)NCCOCCOCCN	100	–
CN(C)CCCNC(=O)[C@H](Cc1ccccc1)NC(=O)C1(NC(=O)c2cc3ccccc3s2)CCCCC1	316	–
CCCCN(CCCC)CCCNC(=O)[C@@H](Cc1ccccc1)NC(=O)C1(NC(=O)c2cc3ccccc3s2)CCCCC1	–	Ki (Substance-K receptor [2]): 200 nM
NCCCCCCCNC(=O)C(Cc1ccccc1)NC(=O)C1(NC(=O)c2cc3ccccc3s2)CCCCC1 (stereo unspecified)	100	–
NCCCCCNC(=O)[C@H](Cc1ccccc1)NC(=O)C1(NC(=O)c2cc3ccccc3s2)CCCCC1	398	–
O=C(NC1(C(=O)N[C@H](Cc2ccccc2)C(=O)NCCCN2CCOCC2)CCCCC1)c1cc2ccccc2s1	–	Ki (Substance-K receptor [2]): 100 nM
CN1CCN(CCCNC(=O)[C@H](Cc2ccccc2)NC(=O)C2(NC(=O)c3cc4ccccc4s3)CCCCC2)CC1	100	–
NCc1ccc(CNC(=O)[C@H](Cc2ccccc2)NC(=O)C2(NC(=O)c3cc4ccccc4s3)CCCCC2)cc1	126	–
NCCCCCCNC(=O)C(Cc1ccccc1)NC(=O)C1(NC(=O)c2cc3ccccc3s2)CCCCC1 (stereo unspecified)	251	Ki (Substance-K receptor [2]): > 1000 nM
O=C(NC1(C(=O)N[C@@H](Cc2ccccc2)C(=O)NC2CC2)CCCCC1)c1cc2ccccc2s1	316	–
CC(C)C[C@H](NC(=O)[C@@H](Cc1ccccc1)NC(=O)C1(NC(=O)c2cc3ccccc3s2)CCCCC1)C(N)=O	316	–
CCN(CC)CCNC(=O)C(Cc1ccccc1)NC(=O)C1(NC(=O)c2cc3ccccc3s2)CCCCC1 (stereo unspecified)	100	–

Second part, led by results:

Ki (Substance-K receptor [1]) [nM]	SMILES	further results
70.8	CC(C)C[C@@H](NC(=O)[C@H](Cc1ccccc1)NC(=O)C1(NC(=O)c2cc3ccccc3s2)CCCCC1)C(N)=O	–
63.1	O=C(NC1(C(=O)NC(Cc2ccccc2)C(=O)NCCN2CCCCC2)CCCCC1)c1cc2ccccc2s1 (stereo unspecified)	–
25.1	O=C(NC1(C(=O)N[C@@H](Cc2ccccc2)C(=O)NCCCN2CCOCC2)CCCCC1)c1cc2ccccc2s1	–
20	NCCOCCOCCNC(=O)[C@H](Cc1ccccc1)NC(=O)C1(NC(=O)c2cc3ccccc3s2)Cc2ccccc2C1	–
2.51	CN1CCN(CCCNC(=O)[C@@H](Cc2ccccc2)NC(=O)C2(NC(=O)c3cc4ccccc4s3)Cc3ccccc3C2)CC1	Ki (Substance-K receptor [2]): 126 nM
50.1	CC(C)C[C@@H](NC(=O)[C@@H](Cc1ccccc1)NC(=O)C1(NC(=O)c2cc3ccccc3s2)CCCCC1)C(N)=O	–
100	O=C(NC1(C(=O)NC(Cc2ccccc2)C(=O)NCCN2CCOCC2)CCCCC1)c1cc2ccccc2s1 (stereo unspecified)	–
31.6	CCCCN(CCCC)CCCNC(=O)[C@@H](Cc1ccccc1)NC(=O)C1(NC(=O)c2cc3ccccc3s2)CCc2ccccc21 (stereo in doubt; 45a)	–
12.6	NCCOCCOCCNC(=O)[C@H](Cc1ccccc1)NC(=O)C1(NC(=O)c2cc3ccccc3s2)CCc2ccccc21 (stereo partly specified)	–
3.98	O=C(NC1(C(=O)N[C@H](Cc2ccccc2)C(=O)NCCCN2CCCC2)CCCCC1)c1cc2ccccc2s1	Ki (Substance-K receptor [2]): > 1000 nM
6.31	O=C(NC1(C(=O)N[C@H](Cc2ccccc2)C(=O)NCCCN2CCCC2)CCc2ccccc21)c1cc2ccccc2s1 (stereo in doubt; 46a)	–
1.26	O=C(NC1(C(=O)N[C@H](Cc2ccccc2)C(=O)NCCCN2CCCC2)CCc2ccccc21)c1cc2ccccc2s1 (stereo in doubt; 46b)	–
31.6	CC(C)N(CCNC(=O)C(Cc1ccccc1)NC(=O)C1(NC(=O)c2cc3ccccc3s2)CCCCC1)C(C)C (stereo unspecified)	–
1.26	O=C(NC1(C(=O)N[C@H](Cc2ccccc2)C(=O)NCCCN2CCCC2)Cc2ccccc2C1)c1cc2ccccc2s1	Ki (Substance-K receptor [2]): 200 nM
50.1	NCCOCCOCCNC(=O)[C@H](Cc1ccccc1)NC(=O)C1(NC(=O)c2cc3ccccc3s2)CCCC1	–
39.8	CCN(CC)CCCNC(=O)[C@H](Cc1ccccc1)NC(=O)C1(NC(=O)c2cc3ccccc3s2)CCCCC1	–
20	O=C(NC1(C(=O)N[C@@H](Cc2ccccc2)C(=O)NCCCN2CCCC2)CCCCC1)c1cc2ccccc2s1	–
1	CN1CCN(CCCNC(=O)[C@@H](Cc2ccccc2)NC(=O)C2(NC(=O)c3cc4ccccc4s3)CCc3ccccc32)CC1 (stereo in doubt; 48b)	Ki (Substance-K receptor [2]): 25.1 nM
0.398	CC1CCCCN1CCCNC(=O)[C@@H](Cc1ccccc1)NC(=O)C1(NC(=O)c2cc3ccccc3s2)CCCCC1 (stereo partly specified)	Ki (Substance-K receptor [2]): 200 nM
2	O=C(NC1(C(=O)N[C@H](Cc2ccccc2)C(=O)NCCCN2CCOCC2)CCc2ccccc21)c1cc2ccccc2s1 (stereo in doubt; 47b)	Ki (Substance-K receptor [2]): 20 nM
12.6	NCCOCCOCCNC(=O)[C@H](Cc1ccccc1)NC(=O)C1(NC(=O)c2cc3ccccc3s2)CCCCC1	–
2	O=C(NC1(C(=O)N[C@H](Cc2ccccc2)C(=O)NCCCN2CCOCC2)Cc2ccccc2C1)c1cc2ccccc2s1	Ki (Substance-K receptor [2]): 100 nM
50.1	CN1CCCC1CCCNC(=O)C(Cc1ccccc1)NC(=O)C1(NC(=O)c2cc3ccccc3s2)CCCCC1 (stereo unspecified)	–
1.58	CCCCN(CCCC)CCCNC(=O)[C@@H](Cc1ccccc1)NC(=O)C1(NC(=O)c2cc3ccccc3s2)Cc2ccccc2C1	Ki (Substance-K receptor [2]): 200 nM
1.58	CCCCN(CCCC)CCCNC(=O)[C@@H](Cc1ccccc1)NC(=O)C1(NC(=O)c2cc3ccccc3s2)CCc2ccccc21 (stereo in doubt; 45b)	–
6.31	CCCCN(CCCC)CCCNC(=O)[C@H](Cc1ccccc1)NC(=O)C1(NC(=O)c2cc3ccccc3s2)CCCCC1	–
7.94	CC1CCCCN1CCCNC(=O)[C@H](Cc1ccccc1)NC(=O)C1(NC(=O)c2cc3ccccc3s2)CCCCC1 (stereo partly specified)	Ki (Substance-K receptor [2]): > 3160 nM
3.98	CN1CCN(CCCNC(=O)[C@@H](Cc2ccccc2)NC(=O)C2(NC(=O)c3cc4ccccc4s3)CCCCC2)CC1	–
2	CN1CCN(CCCNC(=O)[C@@H](Cc2ccccc2)NC(=O)C2(NC(=O)c3cc4ccccc4s3)CCCC2)CC1	–
